# Organism: Rattus norvegicus
# Assay: Open TG-GATES - Regimen: Single
# Assay type: toxicity, organism-based, Sprague-Dawley
# Set-up: regimen Single, gender Male, age 6 weeks
# Conditions: in vivo, po, 0 mg/kg, route gavage, dose level Control; for Bas / Eos / Hb / Ht / Lym / MCH / MCHC / MCV / Mono / Neu / Plat / RBC / Ret / WBC: tissue Blood; for KIDNEY_L / KIDNEY_R / KIDNEY_TOTAL: tissue Kidney; for LIVER: tissue Liver; for A/G / ALP / ALT / AST / BUN / CRE / Ca / Cl / DBIL / GLC / IP / K / LDH / Na / PL / RALB / TBIL / TC / TG / TP / gamma-GTP: tissue Plasma
compound,measurement,setting,value
Cc1ccc2cc3c(ccc4ccccc43)c3c2c1CC3 [3-METHYLCHOLANTHRENE],TERMINAL_BW,3 h,209.2 g
same,Bas,3 h,0%
same,Eos,3 h,0.6%
same,Hb,3 h,12.8 g/dL
same,Ht,3 h,39.3%
same,Lym,3 h,79.2%
same,MCH,3 h,20.8 pg
same,MCHC,3 h,32.6%
same,MCV,3 h,63.7 fL
same,Mono,3 h,3.6%
same,Neu,3 h,16.2%
same,Plat,3 h,126.1 x10_4/uL
same,RBC,3 h,616.6 x10_4/ul
same,Ret,3 h,8.7%
same,WBC,3 h,119.3 x10_2/uL
same,KIDNEY_L,3 h,0.9 g
same,KIDNEY_R,3 h,0.9 g
same,KIDNEY_TOTAL,3 h,1.9 g
same,LIVER,3 h,9.3 g
same,A/G,3 h,1.1
same,ALP,3 h,1726.2 IU/L
same,ALT,3 h,46.2 IU/L
same,AST,3 h,77.6 IU/L
same,BUN,3 h,10.5 mg/dL
same,CRE,3 h,0.1 mg/dL
same,Ca,3 h,10.7 mg/dL
same,Cl,3 h,104.3 meq/L
same,DBIL,3 h,0.002 mg/dL
same,GLC,3 h,185.2 mg/dL
same,IP,3 h,7.7 mg/dL
same,K,3 h,3.9 meq/L
same,LDH,3 h,179.6 IU/L
same,Na,3 h,140.3 meq/L
same,PL,3 h,163.8 mg/dL
same,RALB,3 h,2.8 g/dL
same,TBIL,3 h,0.002 mg/dL
same,TC,3 h,77.2 mg/dL
same,TG,3 h,142.8 mg/dL
same,TP,3 h,5.6 g/dL
same,gamma-GTP,3 h,0.7 IU/L
same,TERMINAL_BW,6 h,206.1 g
same,Bas,6 h,0%
same,Eos,6 h,0.6%
same,Hb,6 h,12.8 g/dL
same,Ht,6 h,38.9%
same,Lym,6 h,69%
same,MCH,6 h,20.7 pg
same,MCHC,6 h,32.8%
same,MCV,6 h,63.2 fL
same,Mono,6 h,3.4%
same,Neu,6 h,26.2%
same,Plat,6 h,124.5 x10_4/uL
same,RBC,6 h,616.2 x10_4/ul
same,Ret,6 h,8.7%
same,WBC,6 h,125.8 x10_2/uL
same,KIDNEY_L,6 h,0.9 g
same,KIDNEY_R,6 h,0.9 g
same,KIDNEY_TOTAL,6 h,1.8 g
same,LIVER,6 h,8.4 g
same,A/G,6 h,1
same,ALP,6 h,1728.2 IU/L
same,ALT,6 h,38 IU/L
same,AST,6 h,69.6 IU/L
same,BUN,6 h,8.9 mg/dL
same,CRE,6 h,0.1 mg/dL
same,Ca,6 h,10.4 mg/dL
same,Cl,6 h,104.5 meq/L
same,DBIL,6 h,0.002 mg/dL
same,GLC,6 h,201.6 mg/dL
same,IP,6 h,9.9 mg/dL
same,K,6 h,4.3 meq/L
same,LDH,6 h,114.8 IU/L
same,Na,6 h,139.9 meq/L
same,PL,6 h,142.4 mg/dL
same,RALB,6 h,2.7 g/dL
same,TBIL,6 h,0.014 mg/dL
same,TC,6 h,80.2 mg/dL
same,TG,6 h,51 mg/dL
same,TP,6 h,5.5 g/dL
same,gamma-GTP,6 h,0.7 IU/L
same,TERMINAL_BW,9 h,204.4 g
same,Bas,9 h,0%
same,Eos,9 h,0.6%
same,Hb,9 h,12.5 g/dL
same,Ht,9 h,38.9%
same,Lym,9 h,75.2%
same,MCH,9 h,20.7 pg
same,MCHC,9 h,32.1%
same,MCV,9 h,64.5 fL
same,Mono,9 h,2.6%
same,Neu,9 h,21%
same,Plat,9 h,129.6 x10_4/uL
same,RBC,9 h,603.8 x10_4/ul
same,Ret,9 h,9%
same,WBC,9 h,80.7 x10_2/uL
same,KIDNEY_L,9 h,1 g
same,KIDNEY_R,9 h,1 g
same,KIDNEY_TOTAL,9 h,1.9 g
same,LIVER,9 h,8.4 g
same,A/G,9 h,1
same,ALP,9 h,1550.4 IU/L
same,ALT,9 h,33.8 IU/L
same,AST,9 h,63.4 IU/L
same,BUN,9 h,10.6 mg/dL
same,CRE,9 h,0.1 mg/dL
same,Ca,9 h,10.6 mg/dL
same,Cl,9 h,103.4 meq/L
same,DBIL,9 h,0.004 mg/dL
same,GLC,9 h,176.6 mg/dL
same,IP,9 h,10.9 mg/dL
same,K,9 h,4.4 meq/L
same,LDH,9 h,137.8 IU/L
same,Na,9 h,141.6 meq/L
same,PL,9 h,132.2 mg/dL
same,RALB,9 h,2.7 g/dL
same,TBIL,9 h,0.006 mg/dL
same,TC,9 h,71.4 mg/dL
same,TG,9 h,52.7 mg/dL
same,TP,9 h,5.5 g/dL
same,gamma-GTP,9 h,0.7 IU/L
same,TERMINAL_BW,24 h,220.6 g
same,Bas,24 h,0%
same,Eos,24 h,0.6%
same,Hb,24 h,12.6 g/dL
same,Ht,24 h,38.4%
same,Lym,24 h,79.4%
same,MCH,24 h,20.5 pg
same,MCHC,24 h,32.7%
same,MCV,24 h,62.7 fL
same,Mono,24 h,3.2%
same,Neu,24 h,16%
same,Plat,24 h,119.3 x10_4/uL
same,RBC,24 h,612.8 x10_4/ul
same,Ret,24 h,8%
same,WBC,24 h,100 x10_2/uL
same,KIDNEY_L,24 h,0.9 g
same,KIDNEY_R,24 h,1 g
same,KIDNEY_TOTAL,24 h,1.9 g
same,LIVER,24 h,9.8 g
same,A/G,24 h,1
same,ALP,24 h,1697 IU/L
same,ALT,24 h,38 IU/L
same,AST,24 h,72 IU/L
same,BUN,24 h,13.8 mg/dL
same,CRE,24 h,0.1 mg/dL
same,Ca,24 h,10.9 mg/dL
same,Cl,24 h,103 meq/L
same,DBIL,24 h,0 mg/dL
same,GLC,24 h,186.2 mg/dL
same,IP,24 h,7.1 mg/dL
same,K,24 h,4.4 meq/L
same,LDH,24 h,181 IU/L
same,Na,24 h,142 meq/L
same,PL,24 h,160.8 mg/dL
same,RALB,24 h,2.8 g/dL
same,TBIL,24 h,0.006 mg/dL
same,TC,24 h,82 mg/dL
same,TG,24 h,134.9 mg/dL
same,TP,24 h,5.5 g/dL
same,gamma-GTP,24 h,0.8 IU/L

# Source: ChEMBL document CHEMBL3885861, “Open TG-GATES”
